Results on 7 compounds are retold here after ChEMBL document CHEMBL3390848, “Affinity selection and sequence-activity relationships of HIV-1 membrane fusion inhibitors directed at the drug-resistant variants” (Medchemcomm, 2010).

Assay [1] deals with Human immunodeficiency virus 1. Briefly: Antiviral activity against HIV1 NL4-3 harboring gp41 D36G mutant infected in human HeLa cells expressing CD4-LTR-beta-gal assessed as inhibition of viral replication after 48 hrs by MAGI assay. The class given is functional, organism-based.
Assay [2] concerns Human immunodeficiency virus 1. Kind of assay: Binding affinity to HIV1 His-tagged N-terminal heptad repeat of envelope glycoprotein gp41 assessed as recovery of N54-drug complex after 2 hrs by LC-MS analysis. Further details: concentration or dose not given beside the values.
The test system of assay [3] is Human immunodeficiency virus 1. Briefly: Thermal stability of HIV1 envelope glycoprotein gp41 His-tagged N-terminal heptad repeat N54-drug complex assessed as thermal unfolding transition state by measuring molar ellipticity at 4 to 90 degC by circular dichroic spectra analysis.

pEC50: −log10 of the molar value. Residues, ends and D or L forms follow the SMILES beside them.

The pEC50 is −log10 of the EC50, conventionally taken in molar units. One may read the Tm as the temperature at which the thermal transition is half complete. Regarding `CC[C@H](C)[C@H](NC(=O)[C@H](CC(C)C)NC(=O)[C@H](CCC(=O)O)NC(=O)[C@H](CCC(=O)O)NC(=O)[C@@H](NC(=O)[C@H](CC(C)C)NC(=O)[C@H](CO)NC(=O)[C@@H](NC(=O)[C@H](Cc1ccc(O)cc1)NC(C)=O)[C@@H](C)O)[C@@H](C)CC)C(=O)N[C@@H](CCCCN)C(=O)N[C@@H](CCCCN)C(=O)N[C@@H](CO)C(=O)N[C@@H](CCC(=O)O)C(=O)N[C@@H](CCC(=O)O)C(=O)N[C@@H](CO)C(=O)N[C@@H](CCC(N)=O)C(=O)N[C@@H](CCCCN)C(=O)N[C@@H](CCCCN)C(=O)N[C@@H](CC(N)=O)C(=O)N[C@@H](CCC(=O)O)C(=O)N[C@@H](CCC(=O)O)C(=O)N[C@@H](CCC(=O)O)C(=O)N[C@@H](CC(C)C)C(=O)N[C@@H](CCCCN)C(=O)N[C@@H](CCCCN)C(=O)N[C@@H](CC(C)C)C(=O)N[C@@H](CCC(=O)O)C(=O)N[C@@H](CCC(=O)O)C(=O)N[C@@H](Cc1c[nH]c2ccccc12)C(=O)N[C@@H](C)C(=O)N[C@@H](CCCCN)C(=O)N[C@@H](CCCCN)C(=O)N[C@@H](Cc1c[nH]c2ccccc12)C(=O)N[C@@H](CC(N)=O)C(=O)N[C@@H](Cc1c[nH]c2ccccc12)C(=O)N[C@@H](Cc1ccccc1)C(N)=O` (Ac-YTSLIEELIKKSEESQKKNEEELKKLEEWAKKWNWF-NH2), the pEC50 in assay [1] was 8.34. Besides, in assay [2], the Activity was 3.2%. For the same compound, the Tm in assay [3] turned out to be 66.7 °C.

`CC[C@H](C)[C@H](NC(=O)[C@H](CC(C)C)NC(=O)[C@H](CCC(=O)O)NC(=O)[C@H](CCC(=O)O)NC(=O)[C@@H](NC(=O)[C@H](CC(C)C)NC(=O)[C@H](CO)NC(=O)[C@@H](NC(=O)[C@H](Cc1ccc(O)cc1)NC(C)=O)[C@@H](C)O)[C@@H](C)CC)C(=O)N[C@@H](CCCCN)C(=O)N[C@@H](CCCCN)C(=O)N[C@@H](CO)C(=O)N[C@@H](CCC(=O)O)C(=O)N[C@@H](CCC(=O)O)C(=O)N[C@H](C(=O)N[C@@H](CCC(N)=O)C(=O)N[C@@H](CCCCN)C(=O)N[C@@H](CCCCN)C(=O)N[C@@H](CC(N)=O)C(=O)N[C@@H](CCC(=O)O)C(=O)N[C@@H](CCC(=O)O)C(=O)N[C@@H](CCC(=O)O)C(=O)N[C@@H](CC(C)C)C(=O)N[C@@H](CCCCN)C(=O)N[C@@H](CCCCN)C(=O)N[C@@H](CC(C)C)C(=O)N[C@@H](CCC(=O)O)C(=O)N[C@@H](CCC(=O)O)C(=O)N[C@@H](Cc1c[nH]c2ccccc12)C(=O)N[C@@H](C)C(=O)N[C@@H](CCCCN)C(=O)N[C@@H](CCCCN)C(=O)N[C@@H](Cc1c[nH]c2ccccc12)C(=O)N[C@@H](CC(N)=O)C(=O)N[C@@H](Cc1c[nH]c2ccccc12)C(=O)N[C@@H](Cc1ccccc1)C(N)=O)[C@@H](C)O` (Ac-YTSLIEELIKKSEETQKKNEEELKKLEEWAKKWNWF-NH2): the negative logarithm of the EC50 (pEC50) in assay [1] is 8.68. The Activity in assay [2] was found to be 6.9%. Moreover, the Tm in assay [3] worked out at 71.6 °C.

For `CC[C@H](C)[C@H](NC(=O)[C@H](CC(C)C)NC(=O)[C@H](CCC(=O)O)NC(=O)[C@H](CCC(=O)O)NC(=O)[C@@H](NC(=O)[C@H](CC(C)C)NC(=O)[C@H](CO)NC(=O)[C@@H](NC(=O)[C@H](Cc1ccc(O)cc1)NC(C)=O)[C@@H](C)O)[C@@H](C)CC)C(=O)N[C@@H](CCCCN)C(=O)N[C@@H](CCCCN)C(=O)N[C@@H](CO)C(=O)N[C@@H](CCC(=O)O)C(=O)N[C@@H](CCC(=O)O)C(=O)N[C@H](C(=O)N[C@@H](CCC(N)=O)C(=O)N[C@@H](CCCCN)C(=O)N[C@@H](CCCCN)C(=O)N[C@@H](CC(N)=O)C(=O)N[C@@H](CCC(=O)O)C(=O)N[C@@H](CCC(=O)O)C(=O)N[C@@H](CCC(=O)O)C(=O)N[C@@H](CC(C)C)C(=O)N[C@@H](CCCCN)C(=O)N[C@@H](CCCCN)C(=O)N[C@@H](CC(C)C)C(=O)N[C@@H](CCC(=O)O)C(=O)N[C@@H](CCC(=O)O)C(=O)N[C@@H](Cc1c[nH]c2ccccc12)C(=O)N[C@@H](C)C(=O)N[C@@H](CCCCN)C(=O)N[C@@H](CCCCN)C(=O)N[C@@H](Cc1c[nH]c2ccccc12)C(=O)N[C@@H](CC(N)=O)C(=O)N[C@@H](Cc1c[nH]c2ccccc12)C(=O)N[C@@H](Cc1ccccc1)C(N)=O)C(C)C` (Ac-YTSLIEELIKKSEEVQKKNEEELKKLEEWAKKWNWF-NH2), in assay [1], the negative-log EC50 (pEC50) is 8.54. In addition, in assay [2], the Activity amounted to 6.1%. Besides, the Tm in assay [3] was determined as 70.5 °C.

Take `CC[C@H](C)[C@H](NC(=O)[C@H](CC(C)C)NC(=O)[C@H](CCC(=O)O)NC(=O)[C@H](CCC(=O)O)NC(=O)[C@@H](NC(=O)[C@H](CC(C)C)NC(=O)[C@H](CO)NC(=O)[C@@H](NC(=O)[C@H](Cc1ccc(O)cc1)NC(C)=O)[C@@H](C)O)[C@@H](C)CC)C(=O)N[C@@H](CCCCN)C(=O)N[C@@H](CCCCN)C(=O)N[C@@H](CO)C(=O)N[C@@H](CCC(=O)O)C(=O)N[C@@H](CCC(=O)O)C(=O)N[C@@H](Cc1c[nH]c2ccccc12)C(=O)N[C@@H](CCC(N)=O)C(=O)N[C@@H](CCCCN)C(=O)N[C@@H](CCCCN)C(=O)N[C@@H](CC(N)=O)C(=O)N[C@@H](CCC(=O)O)C(=O)N[C@@H](CCC(=O)O)C(=O)N[C@@H](CCC(=O)O)C(=O)N[C@@H](CC(C)C)C(=O)N[C@@H](CCCCN)C(=O)N[C@@H](CCCCN)C(=O)N[C@@H](CC(C)C)C(=O)N[C@@H](CCC(=O)O)C(=O)N[C@@H](CCC(=O)O)C(=O)N[C@@H](Cc1c[nH]c2ccccc12)C(=O)N[C@@H](C)C(=O)N[C@@H](CCCCN)C(=O)N[C@@H](CCCCN)C(=O)N[C@@H](Cc1c[nH]c2ccccc12)C(=O)N[C@@H](CC(N)=O)C(=O)N[C@@H](Cc1c[nH]c2ccccc12)C(=O)N[C@@H](Cc1ccccc1)C(N)=O` (Ac-YTSLIEELIKKSEEWQKKNEEELKKLEEWAKKWNWF-NH2): the negative logarithm of the EC50 (pEC50) in assay [1] is 8.60. Further, in assay [2], the Activity was 8.1%. Further, the Tm in assay [3] is 68.8 °C.

As to `CC[C@H](C)[C@H](NC(=O)[C@H](CC(C)C)NC(=O)[C@H](CCC(=O)O)NC(=O)[C@H](CCC(=O)O)NC(=O)[C@@H](NC(=O)[C@H](CC(C)C)NC(=O)[C@H](CO)NC(=O)[C@@H](NC(=O)[C@H](Cc1ccc(O)cc1)NC(C)=O)[C@@H](C)O)[C@@H](C)CC)C(=O)N[C@@H](CCCCN)C(=O)N[C@@H](CCCCN)C(=O)N[C@@H](CO)C(=O)N[C@@H](CCC(=O)O)C(=O)N[C@@H](CCC(=O)O)C(=O)N[C@@H](Cc1ccc(O)cc1)C(=O)N[C@@H](CCC(N)=O)C(=O)N[C@@H](CCCCN)C(=O)N[C@@H](CCCCN)C(=O)N[C@@H](CC(N)=O)C(=O)N[C@@H](CCC(=O)O)C(=O)N[C@@H](CCC(=O)O)C(=O)N[C@@H](CCC(=O)O)C(=O)N[C@@H](CC(C)C)C(=O)N[C@@H](CCCCN)C(=O)N[C@@H](CCCCN)C(=O)N[C@@H](CC(C)C)C(=O)N[C@@H](CCC(=O)O)C(=O)N[C@@H](CCC(=O)O)C(=O)N[C@@H](Cc1c[nH]c2ccccc12)C(=O)N[C@@H](C)C(=O)N[C@@H](CCCCN)C(=O)N[C@@H](CCCCN)C(=O)N[C@@H](Cc1c[nH]c2ccccc12)C(=O)N[C@@H](CC(N)=O)C(=O)N[C@@H](Cc1c[nH]c2ccccc12)C(=O)N[C@@H](Cc1ccccc1)C(N)=O` (Ac-YTSLIEELIKKSEEYQKKNEEELKKLEEWAKKWNWF-NH2), the negative-log EC50 (pEC50) in assay [1] was 8.64. Moreover, in assay [2], the Activity worked out at 4.9%. Moreover, the Tm in assay [3] was found to be 67.7 °C.

Take `CC[C@H](C)[C@H](NC(=O)[C@H](CC(C)C)NC(=O)[C@H](CCC(=O)O)NC(=O)[C@H](CCC(=O)O)NC(=O)[C@@H](NC(=O)[C@H](CC(C)C)NC(=O)[C@H](CO)NC(=O)[C@@H](NC(=O)[C@H](Cc1ccc(O)cc1)NC(C)=O)[C@@H](C)O)[C@@H](C)CC)C(=O)N[C@@H](CCCCN)C(=O)N[C@@H](CCCCN)C(=O)N[C@H](C(=O)N[C@@H](CCC(=O)O)C(=O)N[C@@H](CCC(=O)O)C(=O)N[C@@H](CCC(N)=O)C(=O)N[C@@H](CCC(N)=O)C(=O)N[C@@H](CCCCN)C(=O)N[C@@H](CCCCN)C(=O)N[C@@H](CC(N)=O)C(=O)N[C@@H](CCC(=O)O)C(=O)N[C@@H](CCC(=O)O)C(=O)N[C@@H](CCC(=O)O)C(=O)N[C@@H](CC(C)C)C(=O)N[C@@H](CCCCN)C(=O)N[C@@H](CCCCN)C(=O)N[C@@H](CC(C)C)C(=O)N[C@@H](CCC(=O)O)C(=O)N[C@@H](CCC(=O)O)C(=O)N[C@@H](Cc1c[nH]c2ccccc12)C(=O)N[C@@H](C)C(=O)N[C@@H](CCCCN)C(=O)N[C@@H](CCCCN)C(=O)N[C@@H](Cc1c[nH]c2ccccc12)C(=O)N[C@@H](CC(N)=O)C(=O)N[C@@H](Cc1c[nH]c2ccccc12)C(=O)N[C@@H](Cc1ccccc1)C(N)=O)C(C)C` (Ac-YTSLIEELIKKVEEQQKKNEEELKKLEEWAKKWNWF-NH2): the negative-log EC50 (pEC50) in assay [1] is 9.52. In addition, the Activity in assay [2] worked out at 9.4%. Moreover, the melting temperature (Tm) in assay [3] was determined as 76 °C.

For the compound `CC[C@H](C)[C@H](NC(=O)[C@H](CC(C)C)NC(=O)[C@H](CCC(=O)O)NC(=O)[C@H](CCC(=O)O)NC(=O)[C@@H](NC(=O)[C@H](CC(C)C)NC(=O)[C@H](CO)NC(=O)[C@@H](NC(=O)[C@H](Cc1ccc(O)cc1)NC(C)=O)[C@@H](C)O)[C@@H](C)CC)C(=O)N[C@@H](CCCCN)C(=O)N[C@@H](CCCCN)C(=O)N[C@@H](Cc1ccc(O)cc1)C(=O)N[C@@H](CCC(=O)O)C(=O)N[C@@H](CCC(=O)O)C(=O)N[C@@H](CCC(N)=O)C(=O)N[C@@H](CCC(N)=O)C(=O)N[C@@H](CCCCN)C(=O)N[C@@H](CCCCN)C(=O)N[C@@H](CC(N)=O)C(=O)N[C@@H](CCC(=O)O)C(=O)N[C@@H](CCC(=O)O)C(=O)N[C@@H](CCC(=O)O)C(=O)N[C@@H](CC(C)C)C(=O)N[C@@H](CCCCN)C(=O)N[C@@H](CCCCN)C(=O)N[C@@H](CC(C)C)C(=O)N[C@@H](CCC(=O)O)C(=O)N[C@@H](CCC(=O)O)C(=O)N[C@@H](Cc1c[nH]c2ccccc12)C(=O)N[C@@H](C)C(=O)N[C@@H](CCCCN)C(=O)N[C@@H](CCCCN)C(=O)N[C@@H](Cc1c[nH]c2ccccc12)C(=O)N[C@@H](CC(N)=O)C(=O)N[C@@H](Cc1c[nH]c2ccccc12)C(=O)N[C@@H](Cc1ccccc1)C(N)=O` (Ac-YTSLIEELIKKYEEQQKKNEEELKKLEEWAKKWNWF-NH2), the pEC50 in assay [1] is 8.30. Besides, the Activity in assay [2] worked out at 4.7%. Further, the Tm in assay [3] came to 61.1 °C.
